Read-outs that look alike come from different tables or passages of the source.
Assays:
Format in all cases: cell-based
[1] = Cell toxicity in HIV-1 infected CEM-GXR cultures (forward/side scatter); details: human, HIV-1NL4-3-infected CEM-GXR cells (CD4+ T-lymphocyte line), Day 4
Experimental: (§1) CEM-GXR cells are an immortalized CD4+ T-lymphocyte line engineered that naturally express the HIV-1 coreceptor CXCR4 and have been further engineered to express the HIV-1 co-receptor CCR5 and a Tat-driven LTR-GFP expression cassette. As such, intracellular GFP expression indicates HIV-1 infection. Cultures of 10^5 CEM-GXR cells were seeded into 96-well plates with RPMI-1640 media (Sigma) supplemented with penicillin/streptomycin plus 20% fetal calf serum (R20+), infected with HIV-1 at a multiplicity of infection of 0.03 (to achieve 3% infected cells on Day 2), and incubated at 37°C and 5% CO2. 24 hours later, cells were pelleted at 750 g and resuspended in R20+ containing compound or 0.1% DMSO. […] Cells were then incubated at 37°C and 5% CO2 for an additional 72 h. 5,000 cells from each culture were measured for cell toxicity and GFP expression by flow cytometry. Flow cytometry data were analyzed using FlowJo v. 8.8.7 software (FlowJo LLC, Ashland, OR). […] Background GFP expression in uninfected cultures was set at 0.05% GFP-positive cells. For each experiment, all data points were obtained in triplicate. All data are reported as the mean ± s.e.m. from at least 3 independent experiments performed with different virus stocks and/or performed on different days. However, all experiments that compare HIV-1NL4-3 and mutant HIV-1 were performed in parallel. EC50 and CC50 values for each compound were calculated from at least four concentrations. Statistical analyses were performed using Student’s unpaired t test, with a p value < 0.05 plus a Bonferroni correction to adjust for multiple comparisons considered significant.
(§2) To assess the effects of these eight compounds on cell viability and HIV-1 replication, we infected a GFP-reporter CEM CD4+ T cell line (CEM-GXR) with the NL4-3 strain of HIV-1 (HIV-1NL4-3). Briefly, cells were infected with HIV-1NL4-3 at a multiplicity of infection of 0.03 (Day 0), followed by removal of HIV-1 and addition of compound (or 0.1% DMSO vehicle control) 24 hours later (Day 1) and incubation for an additional 72 hours to allow HIV-1 spread (Days 2–4). On Days 2 and/or 4, the percent HIV-1 infected (i.e., GFP-expressing) cells was measured by flow cytometry. Cell viability was assessed by measuring the percentage of cells displaying normal forward- and side-scatter parameters in drug-treated, HIV-1 infected cultures compared to 0.1% DMSO-treated, HIV-1 infected control cultures. […] HIV-1NL4-3 replication was unaffected by the presence of 0.1% DMSO vehicle control (Fig. 2B).

[2] = system: HCV J4(1b)/JFH1(2a) chimera; assay: HCV replication assay in Huh-7.5 cells (NS5A flow cytometry); details: Hepatitis C virus, Huh7.5, 72 h
Experimental: The intergenotypic chimeric HCV used in this study—Bi-Gluc-J4(1b)/JFH1(2a) containing cell culture adaptive mutations in NS2 (T2996C) and NS3 (A4827T)—was previously described and subsequently modified to express Gaussia luciferase in the first cistron. HCV stocks used for infection were generated by electroporation of in vitro transcribed RNA into Huh-7.5.1 cells and pooling of supernatants harvested between 60–96 hr post-electroporation. HCV infectivity was determined by limiting dilution assay as previously described.
HCV cell culture was performed as described previously. Briefly, 4*10^4 Huh-7.5 cells were seeded into 24-well plates and incubated at 37°C and 5% CO2 overnight. Cells were then infected with HCV (multiplicity of infection = 0.3) for 6 hours, followed by removal of HCV and incubation with fresh medium containing compounds at stated concentrations. Cultures were then incubated for 72 hours, with no more than 0.1% DMSO present in culture medium. Cells were then trypsinized, resuspended in culture medium, and stained with the 9E10 alexa-fluor-conjugated antibody to NS5A [27]. Cells were fixed and analyzed for NS5A fluorescence by flow cytometry, and data were analyzed using FlowJo software. […] For each culture, NS5A fluorescence was determined as the percent gated cells relative to percent gated cells in infected cultures plus 0.1% DMSO. All experiments were performed in at least duplicate in at least two independent experiments.
We therefore assessed the effects of ixoratannin A-2, boldine, and BIT-225 on replication of HCV, which also encodes a viral ion channel and protease. Using an established cell culture system, Huh-7.5 cells were infected with an intergenotypic chimera between the J4 (genotype 1b) and JFH1 (genotype 2a) strain of HCV for 6 hours, followed by incubation with fresh medium containing compounds at defined concentrations. Infected cells were then incubated for an additional 72 hours. NS5A expression, a marker of HCV infection, was then detected by flow cytometry.

[3] = PBMC cytotoxicity (ViaCount Assay); details: human, all assessed concentrations, read-out: PBMC viability relative to PBMCs in 0.1% DMSO
Experimental: Cytotoxicity was determined by ViaCount Assay (Millipore). Briefly, Day 3 PHA-activated PBMCs (3*10^5) were cultured in R10+ supplemented with 100 units/mL human IL-2 in the presence of 0.1% DMSO or compounds at defined concentrations. At Day 5, 15 μL of each PBMC culture was mixed with Guava ViaCount Reagent at a 1:10 dilution. Data were collected using a Guava EasyCyte HT Flow Cytometer (Millipore).

HIV-1NL4-3 [4] = assay: HIV-1 replication assay in PBMCs (p24Gag ELISA); details: Day 12
Experimental: PBMCs from HIV-1 negative subjects, purchased commercially (StemCell Technologies, Vancouver, Canada), were maintained in RPMI-1640 media (Sigma) supplemented with penicillin/streptomycin plus 10% fetal calf serum (R10+). 72 h prior to viral infection, PBMCs were stimulated by addition of 5 μg/mL phytohaemaglutanin (PHA) (Day 0) and maintained in R10+ medium supplemented with 100 units/mL human IL-2. At Day 3 following cellular activation, 3x10^5 cells were infected with HIV-1NL4-3 at a multiplicity of infection of 0.003 (0.3% infected cells) and incubated at 37°C for 6h, followed by wash and re-suspension in fresh R10+ medium supplemented with 100 units/mL human IL-2 and with or without compounds at defined concentrations. Culture supernatants were collected and replaced with fresh medium supplemented with human IL-2 every 3 days (i.e., Days 6, 9, and 12) with or without fresh compounds. Viral replication at day 12 was monitored by measuring cell culture supernatant levels of p24^Gag by ELISA (XpressBio, Frederick, MD) following manufacturer’s instructions.

HIV-1NL4-3 [5] = assay: microbe, parasite or virus in culture; details: for selectivity index (SI): CC50 over EC50 in CEM-GXR cells; for EC50: read-out: HIV-1NL4-3 inhibition (EC50); for percent GFP-positive (HIV-infected) cells: 100 μM
Experimental: as §1, §2

HIV-1RT = assay: microbe, parasite or virus in culture; details: for EC50: Human immunodeficiency virus 1, CEM-GXR, 96 h, read-out: EC50 HIV-1RT
Experimental: CEM-GXR cells are an immortalized CD4+ T-lymphocyte line engineered that naturally express the HIV-1 coreceptor CXCR4 and have been further engineered to express the HIV-1 co-receptor CCR5 and a Tat-driven LTR-GFP expression cassette. As such, intracellular GFP expression indicates HIV-1 infection [26]. Cultures of 10^5 CEM-GXR cells were seeded into 96-well plates with RPMI-1640 media (Sigma) supplemented with penicillin/streptomycin plus 20% fetal calf serum (R20+), infected with HIV-1 at a multiplicity of infection of 0.03 (to achieve 3% infected cells on Day 2), and incubated at 37°C and 5% CO2. 24 hours later, cells were pelleted at 750 g and resuspended in R20+ containing compound or 0.1% DMSO. […] Cells were then incubated at 37°C and 5% CO2 for an additional 72 h. 5,000 cells from each culture were measured for cell toxicity and GFP expression by flow cytometry. […] Background GFP expression in uninfected cultures was set at 0.05% GFP-positive cells. For each experiment, all data points were obtained in triplicate. All data are reported as the mean ± s.e.m. from at least 3 independent experiments performed with different virus stocks and/or performed on different days. […] EC50 and CC50 values for each compound were calculated from at least four concentrations. Statistical analyses were performed using Student’s unpaired t test, with a p value < 0.05 plus a Bonferroni correction to adjust for multiple comparisons considered significant.

[6] = read-out: inhibition of HCV replication

Row | SMILES | CC50 at 72 h [1] | EC50 ([2]; read-out: EC50 HCV replication) | inhibition at 30 µM [2, 6] | viability ([3]; PHA-activated PBMCs) | reduced HIV-1 replication in PBMCs (p24Gag) (HIV-1NL4-3 [4]; 25 μM) | selectivity index (SI) (HIV-1NL4-3 [5]) | EC50 (HIV-1NL4-3 [5]; Human immunodeficiency virus 1, 96 h, CEM-GXR cells, Day 4) | EC50 (HIV-1RT) | inhibition at 50 µM [2, 6] | viability [3] | reduced HIV-1 replication in PBMCs (p24Gag) (HIV-1NL4-3 [4]; 100 μM) | percent GFP-positive (HIV-infected) cells (HIV-1NL4-3 [5]; Day 2, HIV-1NL4-3-infected CEM-GXR cells (infected control 3.14)) | percent GFP-positive (HIV-infected) cells (HIV-1NL4-3 [5]; Day 4, HIV-1NL4-3-infected CEM-GXR cells (infected control 10.80)) | EC50 (HIV-1NL4-3 [5]; Human immunodeficiency virus 1, CEM-GXR, 96 h) | inhibition of HIV-1RT (HIV-1RT; concentrations up to 75 or 100 μM, CEM-GXR cells)
1 | Oc1cc(O)c2c(c1)OC1(c3ccc(O)c(O)c3)Oc3c4c(c5c(c3C2C1O)OC1(c2ccc(O)c(O)c2)Oc2cc(O)cc(O)c2C5C1O)OC(c1ccc(O)c(O)c1)C(O)C4 (stereo not drawn) [ixoratannin A-2] | 57.5 µM | 23 µM | > 50% | > 85% | 39.0% | 1.7 | 34.4 µM | 33.7 µM | – | – | – | – | – | – | –
2 | COc1cc2c(cc1O)C[C@H]1c3c(cc(O)c(OC)c3-2)CCN1C [boldine] | > 100 µM | – | – | – | – | 4.1 | – | > 100 µM | 36% | > 85% | 47.0% | 2.17% | 4.09% | 50.2 µM | < 50%
